How the values were obtained:
[1] = target: T1, murine CCR2 (Mus musculus, UniProt P51683); assay: Functional β-arrestin recruiting test with human MCP-1 (B-2a); format: cell-based; details: U2OS β-arrestin cell line transfected with murine CCR2; agonist human MCP-1 at EC50 (about 3 nM); in some cases means of several determinations
T1 construct: host or cells: U2OS β-arrestin cell line
Protocol: The antagonistic action of test substances on CCR2 was determined in a β-arrestin test. The PathHunter β-arrestin GPCR test system (DiscoveRx Corporation, Ltd.) is a cell-based functional method for detecting binding of β-arrestin to an activated receptor. The molecular basis is a […] complementation measured by the enzymatic conversion of a chemiluminescent substrate. The test cell used was a U2OS β-arrestin cell line transfected with murine CCR2 (93-0543C3, DiscoveRx Corporation, Ltd.).
The test substances were dissolved in dimethyl sulphoxide (DMSO) at a concentration of 10 mM and serially diluted with DMSO in steps of 1:3.16 for a 10-point dose/activity analysis. According to the desired test concentrations, the substances were pre-diluted in Tyrode with 2 mM CaCl2 and 0.05% BSA.
The cells, cultivated in MEM Eagle (supplemented with 10% FCS, 50 U/ml of penicillin, 50 μg/ml of streptomycin, 250 μg/ml of hygromycin and 500 μg/ml of geniticin), were sown at 2000 cells/25 μl in 384 well, μCLEAR/black cell culture plates from Greiner (#781092) and incubated at 37° C. for 24 h. The sowing medium consisted of Opti-MEM (supplemented with 1% FCS, 50 U/ml of penicillin and 50 μg/ml of streptomycin). The cells were pre-incubated for 10 min with 10 μl of the test substances diluted in buffer, and 10 μl of agonist solution [human MCP-1 (PeproTech, #300-04) in Tyrode with 0.05% BSA) were then added. The human MCP-1 was employed at the concentration which corresponds to the EC50 which had been determined in a preliminary test (usually about 3 nM). After 90 min of incubation at 37° C., the solution was removed, and recruitment of β-arrestin to CCR2 was detected with the aid of the PathHunter detection reagent (93-001, DiscoveRx Corporation, Ltd.) according to the instructions of the manufacturer. Luminescence was measured after an incubation time of 60 min using a proprietary luminescence imaging measuring instrument. The molar concentration of the test substance which caused 50% inhibition of the MCP-1 effect (IC50) was determined using a 4-parameter logistic function (Hill function).

[2] = target: T2, human CCR2 (Homo sapiens, UniProt P41597); assay: Functional Ca2+ release test (B-1); format: cell-based; details: Chem-1 cell line transfected with human CCR2; 50% inhibition of the MCP-1 effect, MCP-1 at EC50 (about 5 nM); in some cases means of several determinations
T2 construct: host or cells: Chem-1 cell line
T2 sequence (P41597 1-360 isoform P41597-2): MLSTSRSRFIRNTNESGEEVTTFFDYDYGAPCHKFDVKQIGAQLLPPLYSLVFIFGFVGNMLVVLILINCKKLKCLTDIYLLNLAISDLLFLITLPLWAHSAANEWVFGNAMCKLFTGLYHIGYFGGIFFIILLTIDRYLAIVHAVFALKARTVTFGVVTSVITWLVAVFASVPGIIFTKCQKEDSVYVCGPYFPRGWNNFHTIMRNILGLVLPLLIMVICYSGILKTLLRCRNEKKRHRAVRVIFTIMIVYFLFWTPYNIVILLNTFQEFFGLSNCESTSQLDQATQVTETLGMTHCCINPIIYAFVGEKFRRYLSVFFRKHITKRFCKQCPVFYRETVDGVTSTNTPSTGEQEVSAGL
Outline: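 Inhibition of MCP-1-evoked Ca2+ release was measured over 120 s by fluorescence imaging in Fluo-4-loaded, human CCR2-transfected Chem-1 cells. Compounds, tested in 10-point 1:3.16 series, were added 10 min before agonist at its EC50 (typically about 5 nM). IC50 values were obtained by 4-parameter logistic fitting.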

T1 sequence (P51683 whole entry): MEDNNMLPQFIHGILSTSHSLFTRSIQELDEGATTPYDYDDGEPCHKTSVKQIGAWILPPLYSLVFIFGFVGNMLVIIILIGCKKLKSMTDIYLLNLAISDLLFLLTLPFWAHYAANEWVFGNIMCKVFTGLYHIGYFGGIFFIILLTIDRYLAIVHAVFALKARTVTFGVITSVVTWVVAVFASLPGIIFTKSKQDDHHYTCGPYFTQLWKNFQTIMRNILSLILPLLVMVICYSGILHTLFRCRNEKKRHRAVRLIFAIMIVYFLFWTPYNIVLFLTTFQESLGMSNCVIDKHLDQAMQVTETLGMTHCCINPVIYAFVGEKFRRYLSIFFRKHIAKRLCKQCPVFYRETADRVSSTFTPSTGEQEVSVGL

Row | Compound | IC50 [1] [nM] | IC50 [2] [nM]
1 | O=c1[nH]c(Cc2ncn[nH]2)nc(C(F)(F)F)c1Cc1ccc(Cl)c(Cl)c1 [Example 92, 5-(3,4-dichlorobenzyl)-2-(1H-1,2,4-triazol-5-ylmethyl)-6-(trifluoromethyl)pyrimidin-4(3H)-one] | 220 | 57
2 | Nc1nc[nH]c1-c1nc(C(F)(F)F)c(Oc2ccc(Cl)c(C(F)(F)F)c2)c(=O)[nH]1 [Example 69, 2-(4-amino-1H-imidazol-5-yl)-5-[4-chloro-3-(trifluoromethyl)phenoxy]-6-(trifluoromethyl)pyrimidin-4(3H)-one] | 1100 | 130
3 | Nc1[nH]ncc1-c1nc(C(F)(F)F)c(Cc2ccc(Cl)c(Cl)c2)c(=O)[nH]1 [Example 60, 2-(5-amino-1H-pyrazol-4-yl)-5-(3,4-dichlorobenzyl)-6-(trifluoromethyl)pyrimidin-4(3H)-one] | 180 | 91
4 | COc1cccnc1Nc1nc(C(F)(F)F)c(Oc2ccc(Cl)c(C(F)(F)F)c2)c(=O)[nH]1 [Example 103, 5-[4-chloro-3-(trifluoromethyl)phenoxy]-2-[(3-methoxypyridin-2-yl)amino]-6-(trifluoromethyl)pyrimidin-4(3H)-one] | 370 | 50
5 | Nc1ncnn1-c1nc(C(F)(F)F)c(Oc2ccc(Cl)c(Cl)c2)c(=O)[nH]1 [Example 48, 2-(5-Amino-1H-1,2,4-triazol-1-yl)-5-(3,4-dichlorophenoxy)-6-(trifluoromethyl)pyrimidin-4(3H)-one] | 30000 | 4.2
6 | Cc1noc(Cc2nc(C(F)(F)F)c(Cc3ccc(Cl)c(Cl)c3)c(=O)[nH]2)n1 [Example 91, 5-(3,4-Dichlorobenzyl)-2-[(3-methyl-1,2,4-oxadiazol-5-yl)methyl]-6-(trifluoromethyl)pyrimidin-4(3H)-one] | 270 | 22
7 | O=c1[nH]c(-c2cccc(Cl)n2)nc(C(F)(F)F)c1Oc1ccc(Cl)c(Cl)c1 [Example 10, 2-(6-chloropyridin-2-yl)-5-(3,4-dichlorophenoxy)-6-(trifluoromethyl)pyrimidin-4(3H)-one] | 140 | 15
8 | O=c1[nH]c(-c2cccc(Cl)n2)nc(C(F)(F)F)c1Oc1ccc(Cl)c(C(F)(F)F)c1 [Example 36, 2-(6-chloropyridin-2-yl)-5-[4-chloro-3-(trifluoromethyl)phenoxy]-6-(trifluoromethyl)pyrimidin-4(3H)-one] | 140 | 6.2
9 | Cn1ncc(-c2nc(C(F)(F)F)c(Cc3ccc(Cl)c(Cl)c3)c(=O)[nH]2)c1N [Example 61, 2-(5-amino-1-methyl-1H-pyrazol-4-yl)-5-(3,4-dichlorobenzyl)-6-(trifluoromethyl)pyrimidin-4(3H)-one] | 220 | 36
10 | COc1cccc(Nc2nc(C(F)(F)F)c(Oc3ccc(Cl)c(C(F)(F)F)c3)c(=O)[nH]2)n1 [Example 100, 5-[4-Chloro-3-(trifluoromethyl)phenoxy]-2-[(6-methoxypyridin-2-yl)amino]-6-(trifluoromethyl)pyrimidin-4(3H)-one] | 920 | 65
11 | COc1cccnc1Nc1nc(C(F)(F)F)c(Oc2ccc(Cl)c(Cl)c2)c(=O)[nH]1 [Example 102, 5-(3,4-dichlorophenoxy)-2-[(3-methoxypyridin-2-yl)amino]-6-(trifluoromethyl)pyrimidin-4(3H)-one] | 260 | 150
12 | O=c1[nH]c(Nc2cn[nH]c2)nc(C(F)(F)F)c1Oc1ccc(Cl)c(C(F)(F)F)c1 [Example 104, 5-[4-Chloro-3-(trifluoromethyl)phenoxy]-2-(1H-pyrazol-4-ylamino)-6-(trifluoromethyl)pyrimidin-4(3H)-one] | 160 | 9.4
13 | O=c1[nH]c(-c2cccnc2)nc(C(F)(F)F)c1Cc1ccc(Cl)c(Cl)c1 [Example 27, 5-(3,4-dichlorobenzyl)-2-(pyridin-3-yl)-6-(trifluoromethyl)pyrimidin-4(3H)-one] | 480 | 35
14 | Cc1cccc(-c2nc(C(F)(F)F)c(Oc3ccc(Cl)c(Cl)c3)c(=O)[nH]2)n1 [Example 9, 5-(3,4-dichlorophenoxy)-2-(6-methylpyridin-2-yl)-6-(trifluoromethyl)pyrimidin-4(3H)-one] | 180 | 13
15 | O=c1[nH]c(Cc2ccno2)nc(C(F)(F)F)c1Cc1ccc(Cl)c(Cl)c1 [Example 96, 5-(3,4-dichlorobenzylylmethyl)-6-(trifluoromethyl)pyrimidin-4(3H)-one] | 160 | 30
16 | Nc1cccc(-c2nc(C(F)(F)F)c(Oc3ccc(Cl)c(Cl)c3)c(=O)[nH]2)n1 [Example 43, 2-(6-aminopyridin-2-yl)-5-(3,4-dichlorophenoxy)-6-(trifluoromethyl)pyrimidin-4(3H)-one] | 220 | 6.6
17 | O=c1[nH]c(Cc2cccnc2)nc(C(F)(F)F)c1Cc1ccc(Cl)c(Cl)c1 [Example 98, 5-(3,4-dichlorobenzyl)-2-(pyridin-3-ylmethyl)-6-(trifluoromethyl)pyrimidin-4(3H)-one] | 460 | 120
18 | O=c1[nH]c(-c2ncc(F)cc2F)nc(C(F)(F)F)c1Cc1ccc(Cl)c(Cl)c1 [Example 18, 5-(3,4-dichlorobenzyl)-2-(3,5-difluoropyridin-2-yl)-6-(trifluoromethyl)pyrimidin-4(3H)-one] | 140 | 14
19 | O=c1[nH]c(-c2nc(C(F)(F)F)c(Oc3ccc(Cl)c(Cl)c3)c(=O)[nH]2)ns1 [Example 86, 5-(3,4-Dichlorophenoxy)-2-(5-oxo-4,5-dihydro-1,2,4-thiadiazol-3-yl)-6-(trifluoromethyl)pyrimidin-4(3H)-one] | 100 | 7.7
20 | O=c1[nH]c(-c2ncccc2F)nc(C(F)(F)F)c1Cc1ccc(Cl)c(C(F)(F)F)c1 [Example 34, 5-[4-chloro-3-(trifluoromethyl)benzyl]-2-(3-fluoropyridin-2-yl)-6-(trifluoromethyl)pyrimidin4(3H)-one] | 110 | 2.7
21 | Cc1cc(C)n(-c2nc(C(F)(F)F)c(Cc3ccc(Cl)c(Cl)c3)c(=O)[nH]2)n1 [Example 57, 5-(3,4-dichlorobenzyl)-2-(3,5-dimethyl-1H-pyrazol-1-yl)-6-(trifluoromethyl)pyrimidin-4(3H)-one] | 1300 | 83
22 | O=c1[nH]nc(Cc2nc(C(F)(F)F)c(Cc3ccc(Cl)c(Cl)c3)c(=O)[nH]2)[nH]1 [Example 90, 5-(3,4-Dichlorobenzyl)-2-[(5-oxo-4,5-dihydro-1H-1,2,4-triazol-3-yl)methyl]-6-(trifluoromethyl)pyrimidin-4(3H)-one] | 620 | 58
23 | O=c1[nH]c(Cc2ccccn2)nc(C(F)(F)F)c1Cc1ccc(Cl)c(Cl)c1 [Example 94, 5-(3,4-dichlorobenzyl)-2-(pyridin-2-ylmethyl)-6-(trifluoromethyl)pyrimidin-4(3H)-one] | 420 | 90
24 | O=C1OCCN1c1nc(C(F)(F)F)c(Cc2ccc(Cl)c(Cl)c2)c(=O)[nH]1 [Example 112, 5-(3,4-Dichlorobenzyl)-2-(2-oxo-1,3-oxazolidin-3-yl)-6-(trifluoromethyl)pyrimidin-4(3H)-one] | 380 | 27
